Assay results as given in patent US20030166687A1, “ALPHA-HYDROXY,-AMINO AND -FLUORO DERIVATIVES OF BETA-SULPHONYL HYDROXAMIC ACIDS AS MATRIX METALLOPROTEINASES INHIBITORS” (priority 2000, published 2003).

Biological target: gelatinase
Test: MMP particle concentration fluorescence assay, gelatinase
Assay type: biochemical
Conditions: in vitro; 15 min preincubation, 1-3 hours with substrate at room temperature, pH 7.5
Protocol: Inhibitory activity is evaluated in one or more of the MMP enzymes (stromelysin, gelatinase, and collagenase) in vitro using particle concentration fluorescence assay. An inhibitor binds to MMP enzymes which prevents the degradation of a substrate by stromelysin, gelatinase, or collagenase. The substrate has attached to it a fluorescein and a biotin moiety. The intact substrate then binds to an avidin-coated particle via the biotin moiety. Once the particle is washed and dried, a fluorescent signal is generated since the fluorescent group is attached to the particle. Without an inhibitor present, the substrate is degraded by MMP enzymes and the fluorescein group is removed, therefore, no fluorescent signal can be detected. Testing compounds are dissolved in DMSO to the desired concentration, then the solutions are diluted to 1:5 with MMP buffer (50 mM Tris-HCl, pH 7.5; 150 mM NaCl; 0.02% NaN3). Serial two-fold dilutions of each compound are prepared. A concentrated, activated enzyme solution is transferred into each plate of the testing compounds, and the mixture is incubated at room temperature for 15 minutes. Thawed MMP substrate is then added into all plates, and the plates are incubated in the dark for 1-3 hours at room temperature. At this point, the substrate mixture is mixed with 0.1% avidin-coated polystyrene particles. After 15 minutes, the fluorescence values are measured following filtration and washing of the beads. Ki values are then calculated.

Point of comparison: `CCCCc1ccc(S(=O)(=O)CC(O)(CS(=O)(=O)c2ccc(OC)cc2)C(=O)NO)cc1` (stereo not drawn) [Example 3, N-hydroxy-2-hydroxy-2-[(4-methoxybenzenesulfonyl)methyl]-3-(4-n-butylbenzenesulfonyl)-propionamide], Ki 13 nM. Against it:
- COc1ccc(S(=O)(=O)CC(O)(CNC(=O)C2CCCC2)C(=O)NO)cc1 (stereo not drawn) [Example 6, N-hydroxy-2-hydroxy-2-[(4-methoxybenzenesulfonyl)methyl]-3-[N-(cyclopentylcarbonyl)amino]-propionamide] — 5.4-fold higher, 70 nM
- COc1ccc(S(=O)(=O)CC(O)(CS(=O)(=O)c2ccc(F)cc2)C(=O)NO)cc1 (stereo not drawn) [Example 2, N-hydroxy-2-hydroxy-2-[(4-methoxybenzenesulfonyl)methyl]-3-(4-fluorobenzenesulfonyl)-propionamide] — 2.4-fold higher, 31 nM
- COc1ccc(S(=O)(=O)CC(O)(CS(=O)(=O)c2ccc(-c3ccccc3)cc2)C(=O)NO)cc1 (single isomer, unassigned) [1, Enantiomer A] — 1.5-fold lower, 8.5 nM
- COc1ccc(S(=O)(=O)CC(O)(CS(=O)(=O)c2ccc(-c3ccccc3)cc2)C(=O)NO)cc1 (racemic) [Example 1, N-hydroxy-2-hydroxy-2-[(4-methoxybenzenesulfonyl)methyl]-3-(4-phenylbenzenesulfonyl)-propionamide] — 6.8-fold lower, 1.9 nM
- COc1ccc(S(=O)(=O)CC(O)(CS(=O)(=O)c2ccc(-c3ccccc3)cc2)C(=O)NO)cc1 (single isomer, unassigned) [1, Enantiomer B] — 38-fold lower, 0.34 nM
- COc1ccc(S(=O)(=O)CC(O)(CNC(=O)c2ccccc2)C(=O)NO)cc1 (stereo not drawn) [Example 5, N-hydroxy-2-hydroxy-2-[(4-methoxybenzenesulfonyl)methyl]-3-(N-benzenecarbonylamino)-propionamide] — 1.8-fold higher, 23 nM
- COc1ccc(C(=O)NCC(O)(CS(=O)(=O)c2ccc(OC)cc2)C(=O)NO)cc1 (stereo not drawn) [Example 7, N-hydroxy-2-hydroxy-2-[(4-methoxybenzenesulfonyl)methyl]-3-(N-(4-methoxybenzenecarbonyl)amino)-propionamide] — within 1.5-fold, 17 nM
- COc1ccc(S(=O)(=O)CC(O)(CS(=O)(=O)c2ccc(OC)cc2)C(=O)NO)cc1 [Example 4, N-hydroxy-2-hydroxy-2-[(4-methoxybenzenesulfonyl)methyl]-3-(4-methoxybenzenesulfonyl)-propionamide] — 1.7-fold lower, 7.5 nM
